Data: ChEMBL document CHEMBL1131842, “Synthesis and estrogen receptor binding affinity of a porphyrin-estradiol conjugate for targeted photodynamic therapy of cancer” (Bioorg Med Chem Lett, 1999)

Target: Estrogen receptor (Homo sapiens, UniProt Q92731+P03372)
Assay: Displacement of [3H]estradiol from estrogen receptor-ligand binding domain
Type: protein assay

C[C@]12CC(CCOC(=O)CCCNC(=O)c3ccc(-c4c5ccc([nH]5)c(-c5ccccc5)c5nc(c(-c6ccccc6)c6nc(c(-c7ccccc7)c7ccc4[nH]7)C=C6)C=C5)cc3)[C@@H]3c4ccc(O)cc4CC[C@H]3[C@@H]1CCC2O (stereo partly specified)
EC50: 274 nM
